Source: PubChem BioAssay (NCI)
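All cell lines were grown in 96-well plates and treated with compound for 48 hours. GI50 marks 50% less growth. Definition used: TGI = concentration required for complete inhibition of growth.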

Tests used:
Test in all cases: DTP human tumour cell line panel, 48 h
UACC-62 melanoma = system: UACC-62 melanoma
CAKI-1 renal = system: CAKI-1 renal
OVCAR-8 ovarian = system: OVCAR-8 ovarian
BT-549 breast = system: BT-549 breast
SF-268 CNS = system: SF-268 CNS
SNB-19 CNS = system: SNB-19 CNS
A498 renal = system: A498 renal
DU-145 prostate = system: DU-145 prostate
HCC-2998 colon = system: HCC-2998 colon
MCF7 breast = system: MCF7 breast
HT29 colon = system: HT29 colon
UO-31 renal = system: UO-31 renal
SF-539 CNS = system: SF-539 CNS
K-562 leukemia = system: K-562 leukemia
SK-OV-3 ovarian = system: SK-OV-3 ovarian
LOX IMVI melanoma = system: LOX IMVI melanoma
M14 melanoma = system: M14 melanoma
MDA-MB-231 breast = system: MDA-MB-231 breast
HS 578T breast = system: HS 578T breast
SW-620 colon = system: SW-620 colon
UACC-257 melanoma = system: UACC-257 melanoma
SF-295 CNS = system: SF-295 CNS
ACHN renal = system: ACHN renal
TK-10 renal = system: TK-10 renal
KM12 colon = system: KM12 colon
HOP-62 NSCLC = system: HOP-62 NSCLC
SK-MEL-28 melanoma = system: SK-MEL-28 melanoma
HCT-15 colon = system: HCT-15 colon
COLO 205 colon = system: COLO 205 colon
OVCAR-5 ovarian = system: OVCAR-5 ovarian
HCT-116 colon = system: HCT-116 colon
U251 CNS = system: U251 CNS
CCRF-CEM leukemia = system: CCRF-CEM leukemia
NCI-H23 lung = system: NCI-H23 lung
OVCAR-3 ovarian = system: OVCAR-3 ovarian
SK-MEL-5 melanoma = system: SK-MEL-5 melanoma
HL-60(TB) leukemia = system: HL-60(TB) leukemia
OVCAR-4 ovarian = system: OVCAR-4 ovarian
MDA-MB-435 = system: MDA-MB-435
MOLT-4 leukemia = system: MOLT-4 leukemia
RXF 393 renal = system: RXF 393 renal
SK-MEL-2 melanoma = system: SK-MEL-2 melanoma
PC-3 prostate = system: PC-3 prostate
SNB-75 CNS = system: SNB-75 CNS
NCI/ADR-RES ovarian = system: NCI/ADR-RES ovarian
IGROV1 ovarian = system: IGROV1 ovarian
EKVX NSCLC = system: EKVX NSCLC
NCI-H460 lung = system: NCI-H460 lung
SN12C renal = system: SN12C renal
A549 NSCLC = system: A549 NSCLC
786-0 renal = system: 786-0 renal
NCI-H226 lung = system: NCI-H226 lung
SR leukemia = system: SR leukemia
RPMI-8226 leukemia = system: RPMI-8226 leukemia
NCI-H522 lung = system: NCI-H522 lung

## CC1(C)CC(C(=O)OCCCCCCCCCCC[P+](c2ccccc2)(c2ccccc2)c2ccccc2)C(C)(C)N1O (configuration not stated)
UACC-62 melanoma
  GI50: 253 nM
  TGI: 1240 nM
CAKI-1 renal
  GI50: 781 nM
  TGI: 2320 nM
OVCAR-8 ovarian
  GI50: 319 nM
  TGI: 1720 nM
BT-549 breast
  GI50: 116 nM
  TGI: 1050 nM
SF-268 CNS
  GI50: 394 nM
  TGI: 1540 nM
SNB-19 CNS
  GI50: 263 nM
  TGI: 1240 nM
A498 renal
  GI50: 353 nM
  TGI: 1260 nM
DU-145 prostate
  GI50: 319 nM
  TGI: 1390 nM
HCC-2998 colon
  GI50: 324 nM
  TGI: 1520 nM
MCF7 breast
  GI50: 187 nM
  TGI: 836 nM
HT29 colon
  GI50: 210 nM
  TGI: 1170 nM
UO-31 renal
  GI50: 972 nM
  TGI: 2290 nM
SF-539 CNS
  GI50: 324 nM
  TGI: 1280 nM
K-562 leukemia
  GI50: 85.2 nM
  TGI: 784 nM
SK-OV-3 ovarian
  GI50: 248 nM
  TGI: 711 nM
LOX IMVI melanoma
  GI50: 207 nM
  TGI: 1050 nM
M14 melanoma
  GI50: 302 nM
  TGI: 1080 nM
MDA-MB-231 breast
  GI50: 252 nM
  TGI: 849 nM
HS 578T breast
  GI50: 354 nM
  TGI: 1840 nM
SW-620 colon
  GI50: 344 nM
  TGI: 1450 nM
UACC-257 melanoma
  GI50: 248 nM
  TGI: 847 nM
SF-295 CNS
  GI50: 211 nM
  TGI: 538 nM
ACHN renal
  GI50: 422 nM
  TGI: 1480 nM
TK-10 renal
  GI50: 362 nM
  TGI: 1670 nM
KM12 colon
  GI50: 151 nM
  TGI: 1130 nM
HOP-62 NSCLC
  GI50: 319 nM
  TGI: 904 nM
SK-MEL-28 melanoma
  GI50: 653 nM
  TGI: 1970 nM
HCT-15 colon
  GI50: 870 nM
  TGI: 2230 nM
COLO 205 colon
  GI50: 168 nM
  TGI: 330 nM
OVCAR-5 ovarian
  GI50: 386 nM
  TGI: 1380 nM
HCT-116 colon
  GI50: 185 nM
  TGI: 1080 nM
U251 CNS
  GI50: 59.6 nM
  TGI: 1110 nM
CCRF-CEM leukemia
  GI50: 110 nM
  TGI: 766 nM
NCI-H23 lung
  GI50: 271 nM
  TGI: 1680 nM
OVCAR-3 ovarian
  GI50: 132 nM
  TGI: 835 nM
SK-MEL-5 melanoma
  GI50: 150 nM
  TGI: 299 nM
HL-60(TB) leukemia
  GI50: 35.5 nM
  TGI: 130 nM
OVCAR-4 ovarian
  GI50: 249 nM
  TGI: 1400 nM
MDA-MB-435
  GI50: 274 nM
  TGI: 1330 nM

## COc1ccc(C#CC2=C(Br)C(=O)OC2)cc1
UACC-62 melanoma
  GI50: 6480 nM
  TGI: 12800 nM
CAKI-1 renal
  GI50: 1760 nM
  TGI: 6610 nM
MOLT-4 leukemia
  GI50: 4440 nM
  TGI: > 50000 nM
RXF 393 renal
  GI50: 7060 nM
  TGI: 17400 nM
OVCAR-8 ovarian
  GI50: 9470 nM
  TGI: 39000 nM
BT-549 breast
  GI50: 8320 nM
  TGI: 18300 nM
SF-268 CNS
  GI50: 16900 nM
  TGI: > 50000 nM
SNB-19 CNS
  GI50: 12000 nM
  TGI: > 50000 nM
A498 renal
  GI50: 873 nM
  TGI: 12000 nM
SK-MEL-2 melanoma
  GI50: 23000 nM
  TGI: > 50000 nM
DU-145 prostate
  GI50: 5440 nM
  TGI: 11400 nM
MCF7 breast
  GI50: 2470 nM
  TGI: > 50000 nM
HT29 colon
  GI50: 2420 nM
  TGI: 10500 nM
UO-31 renal
  GI50: 16900 nM
  TGI: > 50000 nM
SF-539 CNS
  GI50: 5150 nM
  TGI: 16800 nM
K-562 leukemia
  GI50: 4770 nM
  TGI: > 50000 nM
LOX IMVI melanoma
  GI50: 6420 nM
  TGI: 14000 nM
M14 melanoma
  GI50: 10500 nM
  TGI: 34000 nM
PC-3 prostate
  GI50: 11600 nM
  TGI: 29800 nM
MDA-MB-231 breast
  GI50: 9480 nM
  TGI: 27600 nM
SNB-75 CNS
  GI50: 1290 nM
  TGI: 16600 nM
HS 578T breast
  GI50: 7430 nM
  TGI: 28200 nM
SW-620 colon
  GI50: 1230 nM
  TGI: 4540 nM
UACC-257 melanoma
  GI50: 11900 nM
  TGI: 26400 nM
SF-295 CNS
  GI50: 10500 nM
  TGI: 29100 nM
NCI/ADR-RES ovarian
  GI50: 12000 nM
  TGI: 33600 nM
ACHN renal
  GI50: 3560 nM
  TGI: 13200 nM
TK-10 renal
  GI50: 1940 nM
  TGI: 16200 nM
KM12 colon
  GI50: 3050 nM
  TGI: 11000 nM
SK-MEL-28 melanoma
  GI50: 5540 nM
  TGI: 23300 nM
HCT-15 colon
  GI50: 2630 nM
  TGI: 11300 nM
IGROV1 ovarian
  GI50: 26800 nM
  TGI: > 50000 nM
COLO 205 colon
  GI50: 2560 nM
  TGI: 29100 nM
OVCAR-5 ovarian
  GI50: 14700 nM
  TGI: 28800 nM
EKVX NSCLC
  GI50: 6900 nM
  TGI: 17000 nM
HCT-116 colon
  GI50: 1400 nM
  TGI: 35700 nM
NCI-H460 lung
  GI50: 10000 nM
  TGI: > 50000 nM
U251 CNS
  GI50: 1750 nM
  TGI: 6480 nM
SN12C renal
  GI50: 8830 nM
  TGI: 16900 nM
CCRF-CEM leukemia
  GI50: 3980 nM
  TGI: > 50000 nM
A549 NSCLC
  GI50: 9430 nM
  TGI: 28600 nM
786-0 renal
  GI50: 21500 nM
  TGI: > 50000 nM
NCI-H226 lung
  GI50: 13300 nM
  TGI: 34600 nM
NCI-H23 lung
  GI50: 10600 nM
  TGI: 25300 nM
SR leukemia
  GI50: 2630 nM
  TGI: > 50000 nM
OVCAR-3 ovarian
  GI50: 1610 nM
  TGI: 7000 nM
RPMI-8226 leukemia
  GI50: 2140 nM
  TGI: > 50000 nM
SK-MEL-5 melanoma
  GI50: 7580 nM
  TGI: 14300 nM
HL-60(TB) leukemia
  GI50: 5320 nM
  TGI: > 50000 nM
NCI-H522 lung
  GI50: 25800 nM
  TGI: > 50000 nM
OVCAR-4 ovarian
  GI50: 2460 nM
  TGI: 11400 nM
MDA-MB-435
  GI50: 9940 nM
  TGI: 27300 nM
